Counter-ions that a name gives are not always drawn.
What was measured:
[1] = system: SMN2 minigene (full length SMN2 minigene mRNA containing SMN2 exon 7); assay: SMN2 minigene mRNA splicing RT-qPCR assay in cultured cells; assay type: cell-based, human; conditions: Homo sapiens, HEK293-H; HEK293H cells stably transfected with SMN2-A minigene; 24 hours; 7-point concentration curve; 1.5-fold relative to vehicle-treated cells; read-out: EC1.5x for production of full length SMN2 mRNA
Experimental: The reverse transcription-quantitative PCR-based (RT-qPCR) assay is used to quantify the level of the full length SMN2 minigene mRNA containing SMN2 exon 7 in a HEK293H cell line stably transfected with said minigene and treated with a test compound.
Protocol. HEK293H cells stably transfected with the SMN2-A minigene construct described above (10,000 cells/well) are seeded in 200 μL of cell culture medium (DMEM plus 10% FBS, with 200 μg/mL hygromycin) in 96-well flat-bottom plates and the plate is immediately swirled to ensure proper dispersal of cells, forming an even monolayer of cells. Cells are allowed to attach for at least 4-6 hours. […] A solution of test compound (1 μL, 200× in DMSO) is added to each cell-containing well and the plate is incubated for 24 hours in a cell culture incubator (37° C., 5% CO2, 100% relative humidity). 2 replicates are prepared for each test compound concentration. The cells are then lysed in Cells-To-Ct lysis buffer and the lysate is stored at −80° C.
The combination of these three oligonucleotides detects only SMN1 or SMN2 minigenes (RT-qPCR) and will not detect endogenous SMN1 or SMN2 genes.
The SMN forward and reverse primers are used at final concentrations of 0.4 μM.
The SMN2-minigene GAPDH mix (15 μL total volume) is prepared by combining 7.5 μL of 2×RT-PCR buffer, 0.4 μL of 25×RT-PCR enzyme mix, 0.75 μL of 20×GAPDH primer-probe mix, 4.0075 μL of water, 2 μL of 10-fold diluted cell lysate, 0.06 μL of 100 μM SMN forward primer, 0.06 μL of 100 μM SMN reverse primer, and 0.225 μL of 100 μM SMN probe.
PCR is carried out at the following temperatures for the indicated time: Step 1: 48° C. (15 min); Step 2: 95° C. (10 min); Step 3: 95° C. (15 sec); Step 4: 60° C. (1 min); then repeat Steps 3 and 4 for a total of 40 cycles.
Each reaction mixture contains both SMN2-A minigene and GAPDH primers/probe sets (multiplex design), allowing simultaneous measurement of the levels of two transcripts.
Two SMN spliced products are generated from the SMN2 minigene. The first spliced product containing exon 7, corresponding to full length SMN2 mRNA, is called SMN2mini FL. The second one lacking exon 7 is called SMN2mini Δ7.
The amplification efficiency E is calculated from the slope of the amplification curve for SMN2mini FL and GAPDH individually. The abundances of SMN2mini FL and GAPDH are then calculated as […], where Ct is the threshold value for each amplicon. The abundance of SMN2mini FL is normalized to GAPDH abundance. The normalized SMN2mini FL abundance from test compound-treated samples is then divided by normalized SMN2mini FL abundance from vehicle-treated cells to determine the level of SMN2 FL mRNA relative to vehicle control.
An EC1.5x for production of full length SMN2 mRNA between >3 μM and ≤30 μM is indicated by one star (*), an EC1.5x between >1 μM and ≤3 μM is indicated by two stars (**), an EC1.5x between >0.3 μM and ≤1 μM is indicated by three stars (***), an EC1.5x between >0.1 μM and ≤0.3 μM is indicated by four stars (****) and an EC1.5x≤0.1 μM is indicated by five stars (*****).

Smn protein = Smn protein assay in cultured cells (SMN HTRF); assay type: cell-based, human; conditions: 48 hours; for maximum fold (Fold) increase of Smn protein: SMA patient fibroblast cells, 7-point concentration data, fold increase relative to vehicle control (SMN HTRF); for EC1.5x (concentration giving 1.5-fold Smn protein increase): SMA Type 1 patient fibroblast cells (GM03813), 7-point concentration curve, SMN HTRF, concentration producing 1.5 times Smn protein vs DMSO vehicle control, read-out: EC1.5x for Smn protein expression
Experimental: The SMN HTRF (homogeneous time resolved fluorescence) assay is used to quantify the level of Smn protein in SMA patient fibroblast cells treated with test compounds.
Protocol. Cells are thawed and cultured in DMEM-10% FBS for 72 hours. Cells are trypsinized, counted and resuspended to a concentration of 25,000 cells/mL in DMEM-10% FBS. […] 1 μL of test compound solution is transferred to cell-containing wells and cells are incubated for 48 hours in a cell culture incubator (37° C., 5% CO2, 100% relative humidity). Triplicate samples are set up for each test compound concentration. After 48 hours, the supernatant is removed from the wells and 25 μL of the RIPA lysis buffer, containing protease inhibitors, is added to the wells and incubated with shaking at room temperature for 1 hour. 25 μL of the diluent is added and then 35 μL of the resulting lysate is transferred to a 384-well plate, where each well contains 5 μL of the antibody solution (1:100 dilution of anti-SMN d2 and anti-SMN kryptate in SMN reconstitution buffer). The plate is centrifuged for 1 minute to bring the solution to the bottom of the wells, then incubated overnight at room temperature. Fluorescence for each well of the plate at 665 nm and 620 nm is measured on an EnVision multilabel plate reader (Perkin-Elmer).
The normalized fluorescence signal is calculated for each sample, Blank and vehicle control well by dividing the signal at 665 nm by the signal at 620 nm. Normalizing the signal accounts for possible fluorescence quenching due to the matrix effect of the lysate. The ΔF value (a measurement of Smn protein abundance) for each sample well is calculated by subtracting the normalized average fluorescence for the Blank control wells from the normalized fluorescence for each sample well and then dividing this difference by the normalized average fluorescence for the Blank control wells. The resulting ΔF value for each sample well represents the Smn protein abundance from test compound-treated samples. The ΔF value for each sample well is divided by the ΔF value for the vehicle control wells to calculate the fold increase in Smn protein abundance relative to the vehicle control.
An EC1.5x for Smn protein expression between >3 μM and ≤10 μM is indicated by one star (*), an EC1.5x between >1 and ≤3 μM is indicated by two stars (**), an EC1.5x between >0.3 μM and ≤1 μM is indicated by three stars (***) and an EC1.5x≤0.3 μM is indicated by four stars (****).

| SMILES | EC (1.5-fold) [1] [µM] | maximum fold (Fold) increase of Smn protein (Smn protein) | EC1.5x (concentration giving 1.5-fold Smn protein increase) (Smn protein) [nM] |
| --- | --- | --- | --- |
| Cc1cn2cc(-c3cc4ccc(N5CCN6C(=O)CCC6C5)cc4oc3=O)nc2c(C)n1 (stereo not drawn) [Compound 973, 2-[3-(6,8-dimethylimidazo[1,2-a]pyrazin-2-yl)-2-oxo-2H-chromen-7-yl]hexahydropyrrolo[1,2-a]pyrazin-6(2H)-one] | 3 to 30 | * (maximum fold increase of ≤1.2) |  |
| CSc1nccn2cc(-c3cc4ccc(N5CCNCC5)cc4oc3=O)nc12 [Cpd 398, 3-[8-(methylsulfanyl)imidazo[1,2-a]pyrazin-2-yl]-7-(piperazin-1-yl)-2H-chromen-2-one] | 1 to 3 | * (maximum fold increase of ≤1.2) |  |
| Cl.O=c1oc2cc(C3CCNCC3)ccc2cc1-c1nc2c(Cl)cccc2s1 [Cpd 18, 3-(4-chloro-1,3-benzothiazol-2-yl)-7-(piperidin-4-yl)-2H-chromen-2-one hydrochloride] | 0.3 to 1 | * (maximum fold increase of ≤1.2) |  |
| Cc1cn2cc(-c3cc4ccc(N5CC6CC5CN6)cc4oc3=O)cc2cn1 (stereo not drawn) [Compound 744, 7-(2,5-diazabicyclo[2.2.1]hept-2-yl)-3-(3-methylpyrrolo[1,2-a]pyrazin-7-yl)-2H-chromen-2-one] | < 0.1 | ** (fold increase between >1.2 and ≤1.35) |  |
| Cc1cn2cc(-c3cc4ccc(N5CCN(C6CC6)CC5)cc4oc3=O)cc2c(C)n1 [Compound 752, 7-(4-cyclopropylpiperazin-1-yl)-3-(1,3-dimethylpyrrolo[1,2-a]pyrazin-7-yl)-2H-chromen-2-one] | < 0.1 | **** (fold increase between >1.5 and ≤1.65) | 300 to 1000 |
| CSc1nccn2cc(-c3cc4ccc(N5CCN(C)CC5)cc4oc3=O)nc12 [Compound 399, 7-(4-methylpiperazin-1-yl)-3-[8-(methylsulfanyl)imidazo[1,2-a]pyrazin-2-yl]-2H-chromen-2-one] | 3 to 30 | * (maximum fold increase of ≤1.2) |  |
| Cc1cn2cc(-c3cc4c(F)cc(N5CCN[C@@H](C)C5)cc4oc3=O)nc2cn1 [Compound 593, 5-fluoro-3-(6-methylimidazo[1,2-a]pyrazin-2-yl)-7-[(3S)-3-methylpiperazin-1-yl]-2H-chromen-2-one] | < 0.1 | ***** (fold increase >1.65) | < 300 |
| CC(C)c1nccc(-c2cc3ccc(N4CCNCC4)cc3oc2=O)n1.Cl [Compound 279, 7-(piperazin-1-yl)-3-[2-(propan-2-yl)pyrimidin-4-yl]-2H-chromen-2-one hydrochloride] | 1 to 3 | * (maximum fold increase of ≤1.2) |  |
| COc1ccc(-c2cc3ccc(N4CCNC[C@@H]4C)cc3oc2=O)cc1OC [Compound 472, 3-(3,4-dimethoxyphenyl)-7-[(2S)-2-methylpiperazin-1-yl]-2H-chromen-2-one] | 1 to 3 | * (maximum fold increase of ≤1.2) |  |
| Cc1ccn2cc(-c3cc4ccc(O[C@@H]5CCNC5)cc4oc3=O)nc2c1 [Compound 323, 3-(7-methylimidazo[1,2-a]pyridin-2-yl)-7-[(3R)-pyirolidin-3-yloxy]-2H-chromen-2-one hydrochloride (1:2)] | 0.3 to 1 | ** (fold increase between >1.2 and ≤1.35) |  |
| Cc1cn2cc(-c3cc4ccc(C5CCNCC5)cc4oc3=O)ccc2n1 [Cpd 825, 3-(2-methylimidazo[1,2-a]pyridin-6-yl)-7-(piperidin-4-yl)-2H-chromen-2-one] | < 0.1 | ***** (fold increase >1.65) | < 300 |
| Cc1cn2cc(-c3cc4ccc(N5CCC(CNC(C)C)CC5)cc4oc3=O)cc2c(C)n1 [Compound 790, 3-(1,3-dimethylpyrrolo[1,2-a]pyrazin-7-yl)-7-{4-[(propan-2-ylamino)methyl]piperidin-1-yl}-2H-chromen-2-one] | 0.3 to 1 | ** (fold increase between >1.2 and ≤1.35) |  |

Source: patent publication USRE47689E1, “Compounds for treating spinal muscular atrophy” (PTC Therapeutics, Inc., priority 2011, dated 2019)
